From US12268674B2, “Mi-2β inhibitor as an immunotherapy agent” (BioVentures, LLC, priority 2021, dated 2025)

What was measured:
[1] = test system: Mi-2β function (CXCL9, CXCL10, IRF1 expression) in A375 cells; experiment: Cell-based assay of inhibitory activity on Mi-2β function, A375; conditions: summary of Table 3 (A375 and B16)
Description: The total RNA was extracted with QIAGEN RNeasy kit […] for cDNA synthesis with SuperScript II Reverse Transcriptase (Invitrogen). In total, 40 ng cDNA was used for quantitative real-time PCR amplification by TaqMan Gene Expression Master Mix (Thermo Fisher Scientific). The relative transcript levels were normalized with GAPDH expression. The data were calculated with the comparative CT method.

[2] = target: T1, recombinant purified human Mi-2β protein (Homo sapiens, UniProt Q14839); experiment: FRET-based nucleosome repositioning assay (EpiDyne-FRET); assay type: biochemical; conditions: FRET-based nucleosome repositioning assay; read-out: IC50 against Mi-2β
T1 construct: made in house
T1 sequence (Q14839 whole entry): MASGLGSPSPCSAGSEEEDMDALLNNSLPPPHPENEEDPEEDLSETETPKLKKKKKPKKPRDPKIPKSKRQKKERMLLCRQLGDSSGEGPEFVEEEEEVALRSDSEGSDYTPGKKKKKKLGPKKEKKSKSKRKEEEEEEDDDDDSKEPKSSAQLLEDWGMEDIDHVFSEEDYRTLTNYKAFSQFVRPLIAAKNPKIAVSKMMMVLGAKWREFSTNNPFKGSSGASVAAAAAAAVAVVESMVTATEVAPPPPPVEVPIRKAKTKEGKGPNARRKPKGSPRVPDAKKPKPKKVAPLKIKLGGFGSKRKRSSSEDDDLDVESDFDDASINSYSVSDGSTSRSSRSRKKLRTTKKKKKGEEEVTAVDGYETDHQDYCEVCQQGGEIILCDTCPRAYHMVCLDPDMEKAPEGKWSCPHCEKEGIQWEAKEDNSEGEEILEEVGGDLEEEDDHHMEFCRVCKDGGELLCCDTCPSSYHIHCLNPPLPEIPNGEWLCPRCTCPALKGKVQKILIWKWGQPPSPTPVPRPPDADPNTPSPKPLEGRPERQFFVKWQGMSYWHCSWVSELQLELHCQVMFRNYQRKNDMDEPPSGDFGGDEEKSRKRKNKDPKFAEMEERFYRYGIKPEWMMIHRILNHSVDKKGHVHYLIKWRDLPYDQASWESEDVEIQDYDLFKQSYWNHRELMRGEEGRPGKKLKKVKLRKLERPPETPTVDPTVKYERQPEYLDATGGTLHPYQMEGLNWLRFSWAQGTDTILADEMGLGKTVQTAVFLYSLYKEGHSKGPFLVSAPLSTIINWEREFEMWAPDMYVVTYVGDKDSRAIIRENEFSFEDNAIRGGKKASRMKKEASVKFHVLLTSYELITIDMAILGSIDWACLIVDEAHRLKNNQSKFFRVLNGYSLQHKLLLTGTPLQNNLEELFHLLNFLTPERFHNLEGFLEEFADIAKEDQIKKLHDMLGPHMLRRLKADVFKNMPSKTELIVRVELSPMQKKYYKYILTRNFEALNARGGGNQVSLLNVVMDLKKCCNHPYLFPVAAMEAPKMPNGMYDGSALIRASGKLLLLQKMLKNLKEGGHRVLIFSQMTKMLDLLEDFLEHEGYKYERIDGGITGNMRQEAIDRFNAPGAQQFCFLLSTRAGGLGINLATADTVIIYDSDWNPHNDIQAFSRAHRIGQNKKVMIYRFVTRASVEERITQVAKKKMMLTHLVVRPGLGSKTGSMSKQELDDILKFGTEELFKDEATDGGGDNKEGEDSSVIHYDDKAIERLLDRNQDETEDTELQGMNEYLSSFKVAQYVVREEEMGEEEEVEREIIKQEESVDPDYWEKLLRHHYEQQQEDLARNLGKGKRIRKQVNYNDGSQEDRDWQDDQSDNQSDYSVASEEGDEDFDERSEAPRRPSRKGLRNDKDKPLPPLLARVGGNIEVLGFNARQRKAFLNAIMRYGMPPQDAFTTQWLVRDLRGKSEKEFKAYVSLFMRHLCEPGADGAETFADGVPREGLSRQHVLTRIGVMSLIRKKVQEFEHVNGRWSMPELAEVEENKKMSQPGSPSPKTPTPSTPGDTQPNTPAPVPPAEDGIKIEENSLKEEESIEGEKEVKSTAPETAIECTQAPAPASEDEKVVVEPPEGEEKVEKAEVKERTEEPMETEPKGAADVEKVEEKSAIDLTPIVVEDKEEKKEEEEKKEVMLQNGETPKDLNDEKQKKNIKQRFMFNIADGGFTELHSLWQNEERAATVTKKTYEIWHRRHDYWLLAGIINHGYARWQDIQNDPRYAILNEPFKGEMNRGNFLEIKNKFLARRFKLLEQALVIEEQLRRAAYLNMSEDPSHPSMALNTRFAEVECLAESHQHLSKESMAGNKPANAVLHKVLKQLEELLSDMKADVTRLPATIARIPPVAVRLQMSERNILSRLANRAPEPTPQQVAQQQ
Description: To screen small molecules that inhibit Mi-2β activity, Homology Modeling was carried out using Structure Prediction Wizard in Prime (49, 50). Mi-2β belongs to the CHD family of chromatin remodelers, which share highly conserved ATPase/helicase domains (51, 52). The Homology Model of Mi-2β was generated using the yeast CHD1 structure (PDB code: 3MWY) as template and the sequence was obtained from Uniprot (53), which clearly depicted the interaction of Mi-2β binding pocket and ATP (FIG. 10a). Virtual screening was done with the enzyme hinge region ligands database and nucleoside mimetic database from Enamine. All ligands of ˜23,010 compounds were docked to the ATP binding site using SP docking and post-processed with Prime MM-GBSA. Ligands with a methyldihydroimidazopyridinone structure were predicted to bind best to the ATP binding region of Mi-2β. To analyze biochemically the inhibitory activity of those inhibitors, a Fluorescence Resonance Energy Transfer (FRET)-based nucleosome repositioning assay (54, 55) was designed and modified using recombinant purified human Mi-2β protein to screen an in-house library of small molecular compounds with a methyldihydroimidazopyridinone structure (FIG. 10b). Briefly, the recombinant nucleosome substrates consist of a Cy5-labeled human histone octamer (H2A T120C-Cy5) wrapped with 5′ Cy3-labeled DNA, which contains a terminal nucleosome 601 positioning sequence. The 601 sequence provides the most thermodynamically preferred locations on DNA for histone octamer (56). FRET signaling was monitored by exciting the nucleosomes at the Cy3 absorption maximum and measuring Cy5 emissions and consequently the FRET signal is at a maximum at the assembled starting point. In the presence of ATP, Mi-2β induces the histone octamer to translocate along the DNA such that the Cy3-labeled DNA 5′ end is moved away from the Cy5-labeled octamer and consequently the FRET signal is decreased (FIG. 10b). The reaction conditions for nucleosome repositioning were modified through multiple rounds of optimization and validation (FIG. 10c-d). […]

melanoma = conditions: clinical data; cited from earlier work

## Cc1c(C(=O)NC2CCn3ccnc3C2)cccc1-c1cnc2[nH]c(=O)n(C)c2c1 (stereo not shown) [SJW-6-004]
[1]
  inhibitory activity on Mi-2β function (enhanced expression of IFN-γ-responsive genes): high inhibitory activity

## Cn1c(=O)[nH]c2ncc(-c3cccc(C(=O)NC4CCn5ccnc5C4)c3)cc21 (stereo not shown) [Z36]
[2]
  IC50: 6.97 ± 2.07 µM
[1]
  inhibitory activity on Mi-2β function (enhanced expression of IFN-γ-responsive genes): high inhibitory activity

## Cn1c(=O)n(C)c2ncc(-c3cccc(C(=O)NC4CCn5ccnc5C4)c3)cc21 (stereo not shown) [ZW-7-023]
[1]
  inhibitory activity on Mi-2β function (enhanced expression of IFN-γ-responsive genes): high inhibitory activity

## O=C(NC1CCn2ccnc2C1)c1cccc(-c2cnc3[nH]c(=O)n(Cc4cccc(C(F)(F)F)c4)c3c2)c1 (stereo not shown) [ZW-7-059]
[1]
  inhibitory activity on Mi-2β function (enhanced expression of IFN-γ-responsive genes): high inhibitory activity

## ipilimumab: anti-CTLA-4 antibody
melanoma
  melanoma patients that respond: 20%

## pembrolizumab: anti-PD-1 antibody
melanoma
  melanoma patients that respond: 33%
